Test results: BindingDB's records for doi:10.1016/j.bmcl.2012.08.020 (Amgen, 2012)

Assay: Inhibition of ACK1 in mouse C8 cells assessed as decrease in cell viability after 20 to 24 hrs

Cc1ccccc1-c1c(-c2ccc(OCCN3CCCC3)cc2)[nH]c2ncnc(NC[C@@H]3CCCO3)c12
IC50: 0.16 µM

Fc1ccccc1-c1c(-c2ccc(OCCN3CCCC3)cc2)[nH]c2ncnc(NC[C@@H]3CCCO3)c12
IC50: 0.04 µM

CN(C)CCOc1ccc(-c2[nH]c3ncnc(NCC4SCCS4)c3c2-c2ccccc2)cc1
IC50: 0.005 µM

CN(C)CCOc1ccc(-c2oc3ncnc(NCC4SCCS4)c3c2-c2ccccc2)cc1
IC50: 0.01 µM

c1ccc(-c2c(-c3ccc(OCCN4CCCC4)cc3)[nH]c3ncnc(NCC4SCCS4)c23)cc1
IC50: 0.01 µM

CN(C)CCOc1ccc(-c2oc3ncnc(NCC4CCCS4)c3c2-c2ccccc2)cc1 (stereo not given)
IC50: 3 µM

CN(C)CCOc1ccc(-c2oc3ncnc(NCC4OCCO4)c3c2-c2ccccc2)cc1
IC50: 2 µM

CN(C)CCOc1ccc(-c2oc3ncnc(NC[C@@H]4CCCCS4)c3c2-c2ccccc2)cc1
IC50: 7.16 µM

CN(C)CCOc1ccc(-c2oc3ncnc(NCC4SCCCS4)c3c2-c2ccccc2)cc1
IC50: 0.55 µM

CN(C)CCOc1ccc(-c2[nH]c3ncnc(NC[C@@H]4CC[C@H]4O)c3c2-c2ccccc2)cc1
IC50: 0.41 µM

CN(C)CCOc1ccc(-c2[nH]c3ncnc(NC[C@H]4CCC[C@H]4O)c3c2-c2ccccc2)cc1
IC50: 0.46 µM

CO[C@@H]1CCC[C@@H]1CNc1ncnc2[nH]c(-c3ccc(OCCN(C)C)cc3)c(-c3ccccc3)c12
IC50: 0.78 µM

CO[C@@H]1CCC[C@H]1CNc1ncnc2[nH]c(-c3ccc(OCCN(C)C)cc3)c(-c3ccccc3)c12
IC50: 1.3 µM

c1cncc(-c2c(-c3ccc(OCCN4CCCC4)cc3)[nH]c3ncnc(NC[C@@H]4CCCO4)c23)c1
IC50: 0.39 µM

COc1cccc(-c2c(-c3ccc(OCCN4CCCC4)cc3)[nH]c3ncnc(NC[C@@H]4CCCO4)c23)c1
IC50: 0.16 µM

c1ccc(-c2[nH]c3ncnc(NC[C@@H]4CCCO4)c3c2-c2ccccc2)cc1
IC50: 0.62 µM

COc1ccc(-c2oc3ncnc(NC[C@@H]4CCCO4)c3c2-c2ccccc2)cc1
IC50: 0.55 µM

COc1ccc(-c2[nH]c3ncnc(NC[C@@H]4CCCO4)c3c2-c2ccccc2)cc1
IC50: 0.35 µM

CS(=O)(=O)c1ccc(-c2oc3ncnc(NC[C@@H]4CCCO4)c3c2-c2ccccc2)cc1
IC50: 0.25 µM

CS(=O)(=O)c1ccc(-c2[nH]c3ncnc(NC[C@@H]4CCCO4)c3c2-c2ccccc2)cc1
IC50: 0.1 µM

CN(C)S(=O)(=O)c1ccc(-c2[nH]c3ncnc(NC[C@@H]4CCCO4)c3c2-c2ccccc2)cc1
IC50: 0.09 µM

CNS(=O)(=O)c1ccc(-c2oc3ncnc(NC[C@@H]4CCCO4)c3c2-c2ccccc2)cc1
IC50: 0.3 µM

CNS(=O)(=O)c1ccc(-c2[nH]c3ncnc(NC[C@@H]4CCCO4)c3c2-c2ccccc2)cc1
IC50: 0.04 µM

CN(C)CCOc1ccc(-c2[nH]c3ncnc(NC[C@@H]4CCCO4)c3c2-c2ccccc2)cc1
IC50: 0.02 µM

c1ccc(-c2c(-c3ccc(OCCN4CCOCC4)cc3)oc3ncnc(NC[C@@H]4CCCO4)c23)cc1
IC50: 0.16 µM

c1ccc(-c2c(-c3ccc(OCCN4CCOCC4)cc3)[nH]c3ncnc(NC[C@@H]4CCCO4)c23)cc1
IC50: 0.08 µM

c1ccc(-c2c(-c3ccc(OCCN4CCCC4)cc3)[nH]c3ncnc(NC[C@@H]4CCCO4)c23)cc1
IC50: 0.06 µM

O=C1CCCN1CCOc1ccc(-c2oc3ncnc(NC[C@@H]4CCCO4)c3c2-c2ccccc2)cc1
IC50: 0.23 µM

O=C1CCCN1CCOc1ccc(-c2[nH]c3ncnc(NC[C@@H]4CCCO4)c3c2-c2ccccc2)cc1
IC50: 0.02 µM

CN(C)C(=O)c1ccc(-c2oc3ncnc(NC[C@@H]4CCCO4)c3c2-c2ccccc2)cc1
IC50: 0.18 µM

CN(C)C(=O)c1ccc(-c2[nH]c3ncnc(NC[C@@H]4CCCO4)c3c2-c2ccccc2)cc1
IC50: 0.02 µM

CNC(=O)c1ccc(-c2[nH]c3ncnc(NC[C@@H]4CCCO4)c3c2-c2ccccc2)cc1
IC50: 0.04 µM

O=C(c1ccc(-c2oc3ncnc(NC[C@@H]4CCCO4)c3c2-c2ccccc2)cc1)N1CCOCC1
IC50: 0.19 µM

O=C(c1ccc(-c2[nH]c3ncnc(NC[C@@H]4CCCO4)c3c2-c2ccccc2)cc1)N1CCOCC1
IC50: 0.02 µM

CN(C)CCOc1ccc(-c2[nH]c3ncnc(NC[C@@H]4CCCO4)c3c2C2=CCCCC2)cc1
IC50: 0.5 µM

CN(C)CCOc1ccc(-c2[nH]c3ncnc(NC[C@@H]4CCCO4)c3c2C2=CCCC2)cc1
IC50: 0.24 µM

CO[C@@H]1CC[C@H]1CNc1ncnc2[nH]c(-c3ccc(OCCN(C)C)cc3)c(-c3ccccc3)c12
IC50: 0.42 µM

CNC(=O)c1ccc(-c2oc3ncnc(NC[C@@H]4CCCO4)c3c2-c2ccccc2)cc1
IC50: 2.05 µM

CN(C)CCOc1ccc(-c2oc3ncnc(NC[C@@H]4CCCO4)c3c2-c2ccccc2)cc1 [(S)-6-(4-(2-(dimethylamino)ethoxy)phenyl)-5-phenyl-N-((tetrahydrofuran-2-yl)methyl)furo[2,3-d]pyrimidin-4-amine]
IC50: 0.03 µM

c1ccc(-c2oc3nccc(NC[C@@H]4CCCO4)c3c2-c2ccccc2)cc1 [N-[(2S)-oxolan-2-ylmethyl]-2,3-diphenylfuro[2,3-b]pyridin-4-amine]
IC50: 5.6 µM
